From US20100267753A1, “METHODS OF TREATING DISORDERS ASSOCIATED WITH PROTEIN KINASE CK2 ACTIVITY” (priority 2009, published 2010) come the findings set out here.

Series [1] in a line: Pharmacokinetics in rat (IV bolus or oral dose). Format: in vivo. Here is the method: The pharmacokinetics properties of drugs were investigated in three species, following an intravenous (IV) bolus or oral (PO) dose of Compound K at the dosages indicated in the chart. Blood samples were collected at predetermined times and the plasma separated. Plasma was separated from the blood samples collected at 5, 15 and 30 minutes and 1, 2, 4, 8 and 24 hours post-dose.
Drug levels were quantified by the LC/MS/MS method described below. Noncompartmental pharmacokinetic analysis was applied for intravenous administration. A linear trapezoidal rule was used to compute AUC(0-24). The terminal t1/2 and C0 were calculated using the last three and the first three data points, respectively
Bioanalysis was performed using a Quattro Micro LC/MS/MS instrument in the MRM detection mode, with an internal standard (1S). Briefly, 15 μL plasma samples were prepared for analysis using protein precipitation with 120 μL of acetonitrile. The supernatants were transferred into a 96 well plate and subjected to LC-MS/MS analysis using a Phenomenex Polar-RP HPLC column. The mobile phases were 10 mM NH4HCO3 in water (Solution-A) and 10 mM NH4HCO3 in methanol (Solution-B). The column was initially equilibrated with 25% Solution-B and followed with 100% Solution B over 5 minutes. […] Quantitation of the analytes was performed in the batch mode with two bracketing calibration curves according to the bioanalytical sample list.

The nature of series [2]: Pharmacokinetic summary across mouse, rat and dog. Format: in vivo. As to the method: Particularly for chronic conditions, oral administration is preferred. Typical dosages for oral administration would be approximately 5-500 mg/kg per day.
For some embodiments, delivery of compound K by injection, such as intramuscular or intravenous, may be preferred. […] The dosage for injected delivery (IV) can be about half of the oral dosage since injection bypasses the absorption barriers that reduce oral bioavailability. For delivery by injection, lower doses such as 1-25 mg/kg per day may be used to achieve similar plasma levels of drug.

For series [3], the system named is CFA-induced thermal hyperalgesia. The series is described as follows: CFA-induced thermal hyperalgesia model (Hargreaves). The series is classed as in vivo, ICR mice. Conditions: 25, 75 or 150 mg/kg BID for four days, dosed as suspensions. As to the method: The observations of pain responses were done blindly.
[…] On day 4, test subjects received a single injection of CFA (20 microliters) subcutaneously in the plantar surface of the left rear paw. CFA was injected subcutaneously into the plantar surface of the left hind paw of each test subject, under isoflurane anesthesia. […] On day 5, thermal responses were measured prior to treatment with the compound and again 1, 2, and 4 hours after treatment with […]. Withdrawal latencies were measured in response to thermal stimulus by the Hargreaves method. Naproxen was used as a positive control.

A short description of series [4]: Phase I clinical study, safety and pharmacokinetics. Format: in vivo, human. Here is the method:
Oral doses are administered twice daily for twenty-one consecutive days of a four week cycle. […] Response by RECIST is determined after every 2 cycles. Serial blood and plasma samples are collected on the first and final dosing days of Cycle 1 (i.e., Day 1 and Day 21) for pharmacokinetic analysis and for pharmacodynamic biomarker evaluations (specifically, total and phosphorylated forms of p21 and Akt).
Patients in Cohorts 1-3 were dosed twice daily (BID) with oral capsules.

Setting [5] is: thirteen patients with solid tumors, oral BID.

In turn, `O=C(O)c1ccc2c(c1)nc(Nc1cccc(Cl)c1)c1ccncc12` [Compound K, 5-(3-chlorophenylamino)benzo[c][2,6]naphthyridine-8-carboxylic acid] had a CLs in series [1] (5.2 mg/kg IV) of 1.7 mL/min/kg. The “Terminal T1/2” value in series [1] (5.2 mg/kg IV) worked out at 11.6 h. Moreover, in series [1] (10.5 mg/kg PO), the “% F0-inf” value is on record as 47.8%. The Cmax came to 38700 ng/mL in series [1] (plasma, 5.2 mg/kg IV) and 7370 ng/mL in series [1] (plasma, 10.5 mg/kg PO). Also, the AUC(0-inf) in series [1] (plasma, 5.2 mg/kg IV, 25 mM sodium phosphate buffer) worked out at 44300 ng·h/mL; in series [1] (plasma, 10.5 mg/kg PO, 25 mM phosphate buffer) it was 42300 ng·h/mL. Moreover, the Vd in series [1] (plasma, 5.2 mg/kg IV, read-out: Vdss) is 2 L/kg. Also, the half-life in series [1] (plasma, 10.5 mg/kg PO, read-out: Terminal T1/2 (converted)) was 12.3 h; in series [2] (plasma, rat and dog, oral), 5 to 12 h; in series [2] (rat, dog, plasma, other: injected (such as intramuscular or intravenous), when injected), 5 to 12 h; in series [4] (human, in vivo, at steady state, patients, oral BID, read-out: terminal half life (converted)), about 25 h. Besides, in series [2] (plasma, po, rat and dog, administered orally), the bioavailability fell in the range of 20 to 50%. Also, in series [2] (rat and dog), the “clearance rate in vivo” value was “relatively low clearance rate”. Besides, the “effect on CFA-induced thermal hyperalgesia” value in series [3] is reported as “Neither compound exhibited a statistically significant effect”. In addition, in series [4] (Phase I patients), the “dose-limiting toxicities (DLTs)” value is listed as “No dose-limiting toxicities (DLTs) have yet been observed”. Further, in series [4] (Phase I patients), the drug related toxicity entry is on record as “no drug related toxicity”. The plasma exposures entry in series [4] (after first dose on day 1 and day 21, Cohorts 1-3 (90, 160, 300 mg BID)) is recorded as “Dose related plasma exposures were observed”. The accumulation result in series [4] (day 1 vs day 21) is “No accumulation was observed”. In series [4] (setting [5]), the “drug-related significant adverse events of grade 3 or higher” value is recorded as “no drug-related significant adverse events of grade 3 or higher reported”. Besides, the “tolerability of oral doses” value in series [4] (setting [5]) was “well tolerated”.

Usually Cmax stands for the maximum level reached in the sampled fluid or tissue. For orientation: AUC(0-inf) means total exposure, with the tail of the curve extrapolated. Read a high AUC(0-inf) as high exposure. Broadly, the bioavailability is the share of a dose that reaches the circulation, judged against a reference dose that is usually intravenous. Higher therefore signals good availability.
